Converted amounts (≈) assume the structure as drawn. The source made the active and inactive calls. No cut-off for these calls is given here.

Assay type in all cases: functional, organism-based
Test [1] concerns Phytophthora cactorum. The test is described as follows: Induction of changes in hyphae ultrastructures in Phytophthora cactorum assessed as cell wall thickening at 0.052 ug/ml by transmission electron microscopy.
Test [2] deals with Phytophthora cactorum. The test is described as follows: Induction of changes in hyphae ultrastructures in Phytophthora cactorum assessed as mitochondria level changes at 0.052 ug/ml by transmission electron microscopy.
Test [3] has as its system Phytophthora cactorum. The test is described as follows: Induction of changes in hyphae ultrastructures in Phytophthora cactorum assessed as plasmalemma invagination at 0.052 ug/ml by transmission electron microscopy. Conditions: Plasma.
Another test deals with Alternaria humicola. Put plainly: Growth inhibition of Alternaria humicola after 48 hr.
The subject of a further test is Rhizoctonia solani. Put plainly: Growth inhibition of Rhizoctonia solani after 48 hr.
For a further test, the system named is Fusarium solani. Put plainly: Growth inhibition of Fusarium solani after 48 hr.
In test [4] the test system is Colletotrichum gloeosporioides. The test is described as follows: Growth inhibition of Colletotrichum gloeosporioides after 48 hr.
The subject of test [5] is Phytophthora cactorum. Put plainly: Induction of changes in hyphae ultrastructures in Phytophthora cactorum assessed as endoplasmic reticulum structure changes at 0.052 ug/ml by transmission electron microscopy.
Test [6] deals with Phytophthora cactorum. The test is described as follows: Growth inhibition of Phytophthora cactorum after 48 hr.
For test [7], the system named is Phytophthora cactorum. The test is described as follows: Induction of changes in hyphae ultrastructures in Phytophthora cactorum at 0.052 ug/ml by transmission electron microscopy.
Test [8] has as its system Phytophthora cactorum. Put plainly: Induction of changes in hyphae ultrastructures in Phytophthora cactorum assessed as membranes obscuring at 0.052 ug/ml by transmission electron microscopy.

As a reminder, the IC50 is the concentration at which inhibition is half-maximal. A higher IC50 goes with weaker potency in that assay. As to `C=CCc1ccc(OC)c(OC)c1` [METHYLEUGENOL], the result in the test on Phytophthora cactorum [1], in the test with Phytophthora cactorum [2], in the test on Phytophthora cactorum [3], in the test on Phytophthora cactorum [5], with Phytophthora cactorum [7] and in the test with Phytophthora cactorum [8] was Active. The concentration for half-maximal inhibition (IC50) with Alternaria humicola worked out at 0.144 µg/mL (≈ 0.808 µM); in the test on Rhizoctonia solani, 0.279 µg/mL (≈ 1.57 µM); in test [4], 0.09 µg/mL (≈ 0.505 µM); with Phytophthora cactorum [6] it was 0.052 µg/mL (≈ 0.292 µM). In the test on Fusarium solani, the “growth inhibition (GI)” value is “inactive”.

In the test on Phytophthora cactorum [6], `COCC(=O)N(c1c(C)cccc1C)C(C)C(=O)OC` (configuration not stated) [METALAXYL] returned an IC50 of 0.013 µg/mL (≈ 0.0465 µM).

Values taken from ChEMBL document CHEMBL3044940, “Activities of essential oils from Asarum heterotropoides var. mandshuricum against five phytopathogens” (Crop Prot, 2010).
